One may read the IC50 as the concentration that gives 50% inhibition. A lower IC50 goes with inhibition by little substance.

The target in this test is cAMP and cAMP-inhibited cGMP 3',5'-cyclic phosphodiesterase 10A (Homo sapiens, UniProt Q9Y233). Nature of the test: PDE10A assay. A digest of the protocol: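 Scintillation proximity readout of [3H]cGMP hydrolysis (50 nM final substrate, 15 min) by 2 ng/well human PDE10A after 15 min compound preincubation at RT, pH 7.5 with MgCl2. Four-parameter logistic fit gave IC50, reported as pIC50.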

As to `COCc1ccc(Nc2cncnc2)c(C(=O)Nc2cc(-c3ccccn3)nn2C)n1` [US8470820, 59], the IC50 was determined as 6.57 nM. The same measure for `CN(C)c1nc2cc(NC(=O)c3c(C(=O)O)cnn3C)ccn2n1` [Roche-Dataset for PDE10A, Compound 768]: 976 nM; for `CNC(=O)c1cc(NC(C)=O)ccc1NC(=O)c1nc(C2CC2)cnc1Nc1cncnc1` [US8703768, 274]: 0.38 nM. Consider `O=C(NC1CC1)c1ccsc1NC(=O)c1nc(C2CC2)ccc1Nc1cncnc1` [US8703768, 89], for which it took 0.48 nM to reach half-maximal inhibition (IC50). The value for `COCCNC(=O)c1cc2[nH]c(-c3ccccc3)nc2cc1NC(=O)c1ccnnc1` [Roche-Dataset for PDE10A, Compound 306] was 35 nM.

In turn, `CSc1ncc(Br)c(C(=O)Nc2cc(-c3ccccn3)nn2C)n1` [Roche-Dataset for PDE10A, Compound 723] gave an IC50 of 7590 nM. Compound `CCn1ccc(NC(=O)c2c(C(=O)N3CCC3)cnn2C)n1` [Roche-Dataset for PDE10A, Compound 1121] displayed an IC50 of 1320 nM. The value for `CCOC(=O)c1cnn(C)c1C(=O)Nc1ccn2nc(N3CCCC3)nc2c1` [Roche-Dataset for PDE10A, Compound 353] was 21 nM. On to `O=C(NC1CCCCCC1)c1nc(C2CC2)cnc1Nc1cncnc1` [Roche-Dataset for PDE10A, Compound 1154], for which inhibition was half-maximal at 1040 nM (IC50). `Cc1c(Cl)cc(Cl)c2nc(CCc3ccn(C)n3)nn12` [Roche-Dataset for PDE10A, Compound 980] came in with a half-maximal inhibitory concentration (IC50) of 309 nM. The same measure for `CCc1ccc(NC(=O)c2nc(C3CC3)cnc2Nc2cncnc2)c(C(=O)NCC(C)(C)O)n1` [US8703768, 181]: 0.41 nM. `Cc1cc(Cl)c(C)n2nc(CCc3nc(N4CCCC4)n(C)n3)nc12` [Roche-Dataset for PDE10A, Compound 374] returned an IC50 of 0.47 nM. `O=C(Nc1snnc1-c1ccccc1)c1nc(C2CC2)ccc1Nc1cncnc1` [Roche-Dataset for PDE10A, Compound 818]: the IC50 was determined as 7.58 nM.

In the case of `CC(C)Cn1nc(-c2ccccn2)cc1NC(=O)c1nc(C2CC2)ccc1Nc1cncnc1` [US8470820, 28], the IC50 was 1.24 nM.

As for `O=C(Nc1ccnn1CC(F)F)c1nc(C2CC2)ccc1Nc1cncnc1` [Roche-Dataset for PDE10A, Compound 642], the IC50 came out at 46 nM. In turn, `O=C(NCC1CCC1)c1nc(C2CC2)cnc1Nc1cncnc1` [Roche-Dataset for PDE10A, Compound 1038] yielded an IC50 of 1590 nM. The value for `CN(C)c1nc2cc(NC(=O)c3c(C(=O)N4CCC4)cnn3C)ccc2s1` [Roche-Dataset for PDE10A, Compound 461] was 3.12 nM; that for `O=C(Nc1cccc(N2CCOCC2)c1)c1nc(C2CC2)cnc1Nc1cncnc1` [Roche-Dataset for PDE10A, Compound 812] was 13 nM; that for `Cc1c(Cl)cc(Cl)c2nc(CCc3cn4cccnc4n3)nn12` [Roche-Dataset for PDE10A, Compound 785] was 360 nM.

For `Cc1cc(-n2nc(N3CCCC3)nc2CCc2nc3c(C(F)(F)F)cc(Cl)c(C)n3n2)ccn1` [Roche-Dataset for PDE10A, Compound 34], inhibition was half-maximal at 1.07 nM (IC50). The value for `Cc1ncc(C)n2nc(CCc3nc(N4CC[C@@H](C)[C@H]4C)nn3C)nc12` [Roche-Dataset for PDE10A, Compound 392] was 43 nM; that for `O=C(Nc1ccn(CC2CC2)n1)c1nc(C2CC2)ccc1Nc1cncnc1` [Roche-Dataset for PDE10A, Compound 593] was 23 nM. The value for `Cc1ccc(C)c(C(=O)Nc2ccc3cc(-c4ccccc4)nn3c2)n1` [Roche-Dataset for PDE10A, Compound 324] was 53 nM; that for `O=C(NC1CCCC1)c1nc(C2CC2)cnc1Nc1cncnc1` [Roche-Dataset for PDE10A, Compound 1041] was 965 nM; that for `Cc1cc(NC(=O)c2c(C(=O)N3CCC3)cnn2C)n(C2CCCC2)n1` [Roche-Dataset for PDE10A, Compound 1046] was 649 nM. `Cn1cc(-c2ccccc2)nc1COc1cnc2cc(Cl)ccc2n1` [Roche-Dataset for PDE10A, Compound 598] had an IC50 of 9.77 nM. The value for `Cc1nc2ccccc2nc1OCc1cccc(N2CCCC2)n1` [2-methyl-3-((6-(pyrrolidin-1-yl)pyridin-2-yl)methoxy)quinoxaline] was 38 nM. The same measure for `O=C1c2ccccc2C(=O)N1CCc1csc(-c2ccccc2)n1` [Roche-Dataset for PDE10A, Compound 177]: 2520 nM. In the case of `Cn1cncc1Cn1nc(-c2ccccn2)cc1NC(=O)c1nc(C2CC2)ccc1Nc1cncnc1` [US8470820, 37], the IC50 amounted to 1.51 nM. The same measure for `O=C(NC1CCN(Cc2ccccc2)CC1)c1nc(C2CC2)cnc1Nc1cncnc1` [Roche-Dataset for PDE10A, Compound 823]: 5050 nM; for `Cc1c(C(F)(F)F)nc2ccc(C#Cc3nc(-c4ccccc4)cn3C)nn12` [Roche-Dataset for PDE10A, Compound 106]: 1.88 nM; for `O=C(NCc1cn(-c2ccccc2)cn1)c1nc(C2CC2)cnc1Nc1cncnc1` [Roche-Dataset for PDE10A, Compound 682]: 53 nM.

`CC(=O)N(C)c1cccc(NC(=O)c2nc(C3CC3)cnc2Nc2cncnc2)c1` [Roche-Dataset for PDE10A, Compound 821] displayed an IC50 of 135 nM. With `Cc1ncn(-c2ccccc2)c1C(=O)Nc1cc(-c2ccccn2)nn1C` [Roche-Dataset for PDE10A, Compound 994], inhibition was half-maximal at 2150 nM (IC50). The value for `Cc1c(Cl)cc(Cl)c2nc(CCc3nc4ncccn4n3)nn12` [Roche-Dataset for PDE10A, Compound 791] was 916 nM. The same measure for `Cc1cc(C(=O)Nc2cc3[nH]c(-c4ccccc4)nc3cc2C(F)(F)F)n(C)n1` [Roche-Dataset for PDE10A, Compound 731]: 10000 nM; for `COc1cnc(C)n2nc(CCc3nc(N4CCCC4)nn3C)nc12` [Roche-Dataset for PDE10A, Compound 671]: 11 nM; for `O=C(NCCN1CCCc2ccccc21)c1nc(C2CC2)cnc1Nc1cncnc1` [Roche-Dataset for PDE10A, Compound 449]: 46 nM. The same measure for `O=C(Nc1ccn2nc(-c3ccccc3)nc2c1)c1ccc(Cl)cn1` [Roche-Dataset for PDE10A, Compound 778]: 10000 nM; for `Cn1ncc(C(=O)N2CCC2)c1C(=O)Nc1cc(-c2ccccn2)n[nH]1` [Roche-Dataset for PDE10A, Compound 664]: 8.3 nM. Compound `CN(C)c1nc(CCc2nc(-c3ccccc3)cn2C)nc2ccc(Cl)cc12` [Roche-Dataset for PDE10A, Compound 55] registered an IC50 of 3.25 nM. In turn, `COc1cccc(NC(=O)c2nc(C3CC3)cnc2Nc2cncnc2)n1` [Roche-Dataset for PDE10A, Compound 1011] showed an IC50 of 49 nM. The same measure for `Cc1ncoc1C(=O)Nc1cc(-c2ccccn2)nn1C` [Roche-Dataset for PDE10A, Compound 979]: 2670 nM; for `CCOC(=O)c1cc(NC(=O)c2c(C(=O)N3CCC3)cnn2C)nn1C` [Roche-Dataset for PDE10A, Compound 959]: 1340 nM. The value for `CCOC(=O)c1cnn(C)c1C(=O)Nc1ccn2nc(C(C)C)nc2c1` [Roche-Dataset for PDE10A, Compound 761] was 1450 nM.

The values are drawn from BindingDB's records for doi:10.1007/s10822-022-00478-x (Roche Innovation Center Basel, F. Hoffmann-La Roche Ltd., 2022).
